Reference: patent US20250313563A1, “GLYCOGEN SYNTHASE KINASE 3 INHIBITORS AND USES THEREOF” (The Broad Institute, Inc., priority 2022, published 2025)
Read-outs that look alike come from different tables or passages of the source.

How the values were obtained:
[1] = molecular target: GSK3α (GST-full length GSK3α) (Homo sapiens (Human), UniProt P49840); assay: GSK3α TR-FRET kinase assay; assay type: biochemical
In short: (§1)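 Compound preincubated 30 min, then 1 nM GST-full-length GSK3α or GSK3b run 100 min at ambient temperature with 200 nM biotinylated, S645-prephosphorylated glycogen synthase 631-650 peptide in Tris pH 7.5, MgCl2, DTT, BSA, 1% DMSO. ATP 4 μM (α) or 2 μM (β), or 1 mM. EDTA-quenched; Tb-anti-pSer641/streptavidin-d2 TR-FRET 665/615 ratio gave IC50.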

[2] = molecular target: GSK3b (GST-full length GSK3b) (Homo sapiens (Human), UniProt P49841); assay: GSK3b TR-FRET kinase assay; assay type: biochemical
In short: as §1

[3] = 1 nM GSK3α, 4 μM ATP, 30 minute preincubation, Table 16, read-out: GSK3-A TR-FRET BIOCHEMICAL (TR-FRET), IC50
[4] = 1 nM GSK3b, 2 μM ATP, 30 minute preincubation, Table 16, read-out: GSK3-B TR-FRET BIOCHEMICAL (TR-FRET), IC50
[5] = 1 nM GSK3α, 4 μM ATP, 30 minute preincubation, Table 16, read-out: GSK3-A TR-FRET BIOCHEMICAL (TR-FRET)
[6] = 1 nM GSK3b, 2 μM ATP, 30 minute preincubation, Table 16, read-out: GSK3-B TR-FRET BIOCHEMICAL (TR-FRET)
[7] = read-out: GSK3-A (TR-FRET 1 mM ATP), GMean, IC50, 1 mM ATP, geometric mean
[8] = read-out: GSK3-B (TR-FRET 1 mM ATP), GMean, IC50, 1 mM ATP, geometric mean
[9] = 1 nM GSK3α, 4 μM ATP, 30 minute preincubation, read-out: GSK3-A TR-FRET BIOCHEMICAL (TR-FRET), IC50
[10] = 1 nM GSK3b, 2 μM ATP, 30 minute preincubation, read-out: GSK3-B TR-FRET BIOCHEMICAL (TR-FRET), IC50

GSK3b (GST-full length GSK3b), sequence (P49841 whole entry): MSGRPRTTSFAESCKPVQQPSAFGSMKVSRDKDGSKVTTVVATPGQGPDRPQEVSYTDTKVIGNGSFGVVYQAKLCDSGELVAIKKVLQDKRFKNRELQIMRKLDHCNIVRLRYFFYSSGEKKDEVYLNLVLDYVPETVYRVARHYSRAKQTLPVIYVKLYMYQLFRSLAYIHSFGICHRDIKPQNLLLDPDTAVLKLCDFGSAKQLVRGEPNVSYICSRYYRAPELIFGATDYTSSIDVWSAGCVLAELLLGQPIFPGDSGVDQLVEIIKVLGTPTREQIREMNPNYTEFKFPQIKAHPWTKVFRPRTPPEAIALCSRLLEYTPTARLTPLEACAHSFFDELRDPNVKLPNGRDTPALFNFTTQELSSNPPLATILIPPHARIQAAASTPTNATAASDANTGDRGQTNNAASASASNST
GSK3α (GST-full length GSK3α), sequence (P49840 whole entry): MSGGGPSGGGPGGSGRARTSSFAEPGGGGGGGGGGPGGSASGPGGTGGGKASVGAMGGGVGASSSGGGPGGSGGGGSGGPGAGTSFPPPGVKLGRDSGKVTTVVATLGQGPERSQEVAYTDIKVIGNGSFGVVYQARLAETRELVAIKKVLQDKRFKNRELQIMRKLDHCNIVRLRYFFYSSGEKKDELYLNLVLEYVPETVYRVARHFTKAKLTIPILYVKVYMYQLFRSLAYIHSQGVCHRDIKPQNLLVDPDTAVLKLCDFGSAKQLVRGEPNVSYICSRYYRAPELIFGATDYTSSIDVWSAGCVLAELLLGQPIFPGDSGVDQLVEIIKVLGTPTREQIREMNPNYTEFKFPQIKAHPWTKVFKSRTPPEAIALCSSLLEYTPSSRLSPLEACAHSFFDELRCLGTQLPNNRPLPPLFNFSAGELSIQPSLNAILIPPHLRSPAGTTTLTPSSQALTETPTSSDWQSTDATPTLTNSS

| IC50 [1, 3] [nM] | IC50 [2, 4] [nM] | IC50 [1, 5] [nM] | IC50 [2, 6] [nM] | Compound | further results |
| --- | --- | --- | --- | --- | --- |
| ≤ 100 | ≤ 100 | – | – | CCC1(c2cccc(N(C)c3ccnc(C(F)(F)F)c3)c2)C2=C(CC(C)(C)CC2=O)Nc2n[nH]cc21 (centres unmarked) [Compound 913254] | – |
| ≤ 100 | 100 to 1000 | – | – | CCC1(c2cccc(Nc3ncccn3)c2)C2=C(CC(C)(C)CC2=O)Nc2n[nH]cc21 (centres unmarked) [Compound 913334] | – |
| ≤ 100 | ≤ 100 | – | – | CCC1(c2cccc(-c3ccnc(C)c3C)c2)C2=C(CC(C)(C)CC2=O)Nc2n[nH]cc21 (centres unmarked) [Compound 913347] | – |
| ≤ 100 | 100 to 1000 | – | – | CCC1(c2cccc(-c3ccnc(C(F)(F)F)c3)c2)C2=C(CC(C)(C)CC2=O)Nc2n[nH]cc21 (centres unmarked) [Compound 913348] | – |
| ≤ 100 | ≤ 100 | – | – | CCC1(c2cccc(-c3ccncc3F)c2)C2=C(CC(C)(C)CC2=O)Nc2n[nH]cc21 (centres unmarked) [Compound 913349] | – |
| 100 to 1000 | ≤ 100 | – | – | CCC1(c2cccc(-c3ccnc(C(F)(F)F)c3)c2)C2=C(CC(C)(C)CC2=O)Nc2n[nH]cc21 (centres unmarked) [Compound 913350] | IC50 [1, 7]: ≤ 100 nM; IC50 [2, 8]: 100 to 1000 nM |
| ≤ 100 | ≤ 100 | – | – | CCC1(c2cccc(-c3ccncc3C)c2)C2=C(CC(C)(C)CC2=O)Nc2n[nH]cc21 (centres unmarked) [Compound 913351] | – |
| ≤ 100 | ≤ 100 | – | – | CCC1(c2cccc(-c3ccnc(O)c3)c2)C2=C(CC(C)(C)CC2=O)Nc2n[nH]cc21 (centres unmarked) [Compound 913352] | – |

Second part, the compound before the results:

| Compound | IC50 [1, 3] [nM] | IC50 [2, 4] [nM] | IC50 [1, 5] [nM] | IC50 [2, 6] [nM] | further results |
| --- | --- | --- | --- | --- | --- |
| CCC1(c2cccc(NS(C)(=O)=O)c2)C2=C(CC(C)(C)CC2=O)Nc2n[nH]cc21 (centres unmarked) [Compound 913253] | ≤ 100 | ≤ 100 | – | – | – |
| CCC1(c2cccc(N(C)c3cc(C)nc(C)c3)c2)C2=C(CC(C)(C)CC2=O)Nc2n[nH]cc21 (centres unmarked) [Compound 913256] | 1000 to 5000 | > 5000 | – | – | – |
| CCC1(c2cccc(S(=O)(=O)Cc3ccccc3)c2)C2=C(CC(C)(C)CC2=O)Nc2n[nH]cc21 (centres unmarked) [Compound 913258] | ≤ 100 | ≤ 100 | – | – | – |
| CC1(C)CC(=O)C2=C(C1)Nc1n[nH]cc1C21CN(S(=O)(=O)C2CC2)C1 [Compound 913259] | – | – | ≤ 100 | ≤ 100 | – |
| Cn1ccc(S(=O)(=O)N2CC3(C2)C2=C(CC(C)(C)CC2=O)Nc2n[nH]cc23)n1 [Compound 913260] | – | – | ≤ 100 | ≤ 100 | – |
| COc1ccccc1S(=O)(=O)N1CC2(C1)C1=C(CC(C)(C)CC1=O)Nc1n[nH]cc12 [Compound 913261] | – | – | ≤ 100 | ≤ 100 | – |
| CC1(C)CC(=O)C2=C(C1)Nc1n[nH]cc1C21CN(S(=O)(=O)c2ccccn2)C1 [Compound 913262] | – | – | ≤ 100 | ≤ 100 | – |
| CC1(C)CC(=O)C2=C(C1)Nc1n[nH]cc1C21CN(S(=O)(=O)c2ccccc2F)C1 [Compound 913263] | – | – | 100 to 1000 | 100 to 1000 | – |
| CN1CC2(C1)C1=C(CC(C)(C)CC1=O)Nc1n[nH]cc12 [Compound 913264] | – | – | ≤ 100 | ≤ 100 | – |
| CC1(C)CC(=O)C2=C(C1)Nc1n[nH]cc1C21CN(S(=O)(=O)c2cccnc2)C1 [Compound 913265] | > 5000 | > 5000 | – | – | – |
| CCC1(c2cccc(N(c3cccnc3)C3CC3)c2)C2=C(CC(C)(C)CC2=O)Nc2n[nH]cc21 (centres unmarked) [Compound 913274] | ≤ 100 | ≤ 100 | – | – | – |
| CCC1(c2cccc(N(C)C(=O)c3cnn(C)c3)c2)C2=C(CC(C)(C)CC2=O)Nc2n[nH]cc21 (centres unmarked) [Compound 913311] | ≤ 100 | ≤ 100 | – | – | IC50 [1, 7]: > 5000 nM; IC50 [2, 8]: > 5000 nM |
| CCC1(c2cccc(C(F)(F)F)c2)C2=C(CCCNC2=O)Nc2n[nH]cc21 (centres unmarked) [Compound 913355] | – | – | > 5000 | > 5000 | – |
| CC1(C)CC(=O)C2=C(C1)Nc1n[nH]cc1C21CCC(S(C)(=O)=O)CC1 (centres unmarked) [Compound 913356] | – | – | ≤ 100 | ≤ 100 | – |
| CCC1(c2cccc(-c3ccnc(C)c3)c2)C2=C(CC(C)NC2=O)Nc2n[nH]cc21 (centres unmarked) [Compound 913357] | – | – | – | – | IC50 [1, 9]: 100 to 1000 nM; IC50 [2, 10]: 1000 to 5000 nM |
| CCC1(c2cccc(Br)c2)C2=C(CC(C)(C)NC2=O)Nc2n[nH]cc21 (centres unmarked) [Compound 913439] | – | – | – | – | IC50 [1, 9]: ≤ 100 nM; IC50 [2, 10]: 100 to 1000 nM |
| O=C1CC2(CSC2)CC2=C1C1(CCCC1)c1c[nH]nc1N2 [Compound 913441] | – | – | 100 to 1000 | 100 to 1000 | – |
| CC1(C)CC(=O)C2=C(C1)Nc1n[nH]cc1[C@@]21CO[C@@H](C2CC2)C1 [Compound 913442] | – | – | 100 to 1000 | 100 to 1000 | – |
